Laboratory results from US4457929A, “3-Quaternary ammonium methyl)-substituted cephalosporin derivatives” (Bristol-Myers Company, priority 1982, dated 1984).

Experiments:
N. gonorrhoeae (4) = assay: In vitro activity against fastidious bacteria in GC agar: N. gonorrhoeae; type: cell-based; settings: Neisseria gonorrhoeae, 4 strains, read-out: Geometric Mean of MIC
Experimental: (§1) The in vitro activity of the most preferred Compound Ia against 31 strains of fastidious bacteria was determined in GC agar, and the results are shown in Table 3.

[1] = Mouse blood levels following a single intramuscular injection; type: in vivo; settings: im, mice, 20 mg/kg
Experimental: The absorption of the most preferred Compound Ia (prepared in Example 1) was determined in mice following a single intramuscular injection of the test compound (dissolved in 0.1M phosphate buffer; pH 7) at a dosage of 20 mg/kg. Blood samples were collected from the orbital sinuses into heparinized capillary tubes and assayed in Mueller-Hinton medium using Morganella morganii A9695 as the test organism. The blood levels at various time intervals, the half-life values (t1/2) and the areas under the curve (AUC) are shown in Table 2.

S. pneumoniae (6) = assay: In vitro activity against fastidious bacteria in GC agar: S. pneumoniae; type: cell-based; settings: Streptococcus pneumoniae, 6 strains, read-out: Geometric Mean of MIC
Experimental: as §1

N. meningitidis (5) = assay: In vitro activity against fastidious bacteria in GC agar: N. meningitidis; type: cell-based; settings: Neisseria meningitidis, 5 strains, read-out: Geometric Mean of MIC
Experimental: as §1

[2] = system: Ps. aeruginosa (6 strains); assay: MIC by two-fold serial agar dilution, group (G-)-III; type: cell-based; settings: Mueller-Hinton agar, Example 1: two different batches; for MIC: Pseudomonas aeruginosa, read-out: Geometric Mean of MIC (G-)-III
Excerpt: (§2) The preferred compounds of Formula I are those in which R^1 is hydrogen, R^2 is methyl, R^3 is methyl or ethyl, and R^4 is methyl, ethyl, 2-hydroxyethyl, 2-(dimethylamino)ethyl, allyl or pyridylmethyl. Particularly preferred compounds are those in which R^1 is hydrogen, R^2 and R^3 are methyl, and R^4 is methyl, 2-hydroxyethyl or allyl. The most preferred compound is that in which R^1 is hydrogen and R^2, R^3 and R^4 are methyl. In the primary evaluation of the preferred compounds of this invention, the Minimum Inhibitory Concentrations (MIC's) of the compounds were determined by the two-fold serial agar dilution method in Mueller-Hinton agar against 32 strains of test organisms in six groups.
(G-)III: Ps. aeruginosa (6 strains)

[3] = system: Penicillinresistant S. aureus (5 strains); assay: MIC by two-fold serial agar dilution, group (G+)-Ib; type: cell-based; settings: Staphylococcus aureus, Mueller-Hinton agar, penicillin-resistant S. aureus, Example 1: two different batches, read-out: Geometric Mean of MIC (G+)-Ib
Excerpt: as §2
(G+)Ib: Penicillinresistant S. aureus (5 strains)

[4] = system: Cephalothinsensitive E. coli (2 strains), Kl. pneumoniae (1 strain) and Pr. mirabilis (2 strains); assay: MIC by two-fold serial agar dilution, group (G-)-Ia; type: cell-based; settings: Mueller-Hinton agar, cephalothin-sensitive, 5 strains, Example 1: two different batches; for MIC: read-out: Geometric Mean of MIC (G-)-Ia
Excerpt: as §2
(G-)Ia: Cephalothinsensitive E. coli (2 strains), Kl. pneumoniae (1
strain) and Pr. mirabilis (2 strains)

[5] = system: Pr. morganii (1 strain), Ent. cloacae (2 strains) and Ser. marcescens (2 strains); assay: MIC by two-fold serial agar dilution, group (G-)-II; type: cell-based; settings: Mueller-Hinton agar; 5 strains; Example 1: two different batches; read-out: Geometric Mean of MIC (G-)-II
Excerpt: as §2
(G-)II: Pr. morganii (1 strain), Ent. cloacae (2 strains) and Ser.

[6] = system: Penicillinsensitive S. aureus (5 strains); assay: MIC by two-fold serial agar dilution, group (G+)-Ia; type: cell-based; settings: Mueller-Hinton agar, penicillin-sensitive S. aureus, Example 1: two different batches; for MIC: Staphylococcus aureus, read-out: Geometric Mean of MIC (G+)-Ia
Excerpt: as §2
(G+)Ia: Penicillinsensitive S. aureus (5 strains)

S. pyogenes (6 strains) = assay: In vitro activity against fastidious bacteria in GC agar: S. pyogenes; type: cell-based; settings: Streptococcus pyogenes, read-out: Geometric Mean of MIC
Experimental: as §1

[7] = system: Cephalothinresistant E. coli (3 strains) and Kl. pneumoniae (3 strains); assay: MIC by two-fold serial agar dilution, group (G-)-Ib; type: cell-based; settings: cephalothin-resistant, 6 strains, Example 1: two different batches; for MIC: Escherichia coli, read-out: Geometric Mean of MIC (G-)-Ib, Mueller-Hinton agar
Excerpt: as §2
(G-)Ib: Cephalothinresistant E. coli (3 strains) and Kl. pneumoniae (3

[8] = system: H. influenzae (3) (ampicillin resistant); assay: In vitro activity against fastidious bacteria in GC agar: H. influenzae (ampicillin resistant); type: cell-based; settings: Haemophilus influenzae, 3 strains, read-out: Geometric Mean of MIC
Experimental: as §1

[9] = system: H. influenzae (7) (ampicillin sensitive); assay: In vitro activity against fastidious bacteria in GC agar: H. influenzae (ampicillin sensitive); type: cell-based; settings: Haemophilus influenzae, 7 strains, read-out: Geometric Mean of MIC
Experimental: as §1

| Structure (SMILES) | MIC [2] [µg/mL] | MIC [3] [µg/mL] | MIC [4] [µg/mL] | MIC [5] [µg/mL] | MIC [6] [µg/mL] | MIC [7] [µg/mL] | also measured |
| --- | --- | --- | --- | --- | --- | --- | --- |
| CO/N=C(\C(=O)NC1C(=O)N2C(C(=O)[O-])=C(C[N+](C)(C)C)CSC12)c1csc(N)n1 (centres unmarked) [Example 1, 7-[(Z)-2-(2-Aminothiazol-4-yl)-2-methoxyiminoacetamido]-3-(trimethylammonium)methyl-3-cephem-4-carboxylate] | 3.2 | 3.6 | 0.033 | 0.69 | 1.1 | 0.25 | MIC (N. gonorrhoeae (4)): 0.013 µg/mL; AUC [1]: 10000 ng·h/mL; half-life [1]: 24 min; concentration at 10 min ([1]; 10 minutes, read-out: Blood levels at minutes after administration: 10): 14000 ng/mL; concentration at 20 min ([1]; 20 minutes, read-out: Blood levels at minutes after administration: 20): 12000 ng/mL; concentration at 0.5 h ([1]; 30 minutes, read-out: Blood levels at minutes after administration: 30): 8800 ng/mL; concentration at 40 min ([1]; 40 minutes, read-out: Blood levels at minutes after administration: 40): 7500 ng/mL; concentration at 50 min ([1]; 50 minutes, read-out: Blood levels at minutes after administration: 50): 4700 ng/mL; concentration at 1 h ([1]; 60 minutes, read-out: Blood levels at minutes after administration: 60): 4400 ng/mL; concentration at 1.5 h ([1]; 90 minutes, read-out: Blood levels at minutes after administration: 90): 1500 ng/mL; concentration at 2 h ([1]; 120 minutes, read-out: Blood levels at minutes after administration: 120): 740 ng/mL; MIC (S. pneumoniae (6)): 0.013 µg/mL; MIC (N. meningitidis (5)): 0.016 µg/mL; Geometric Mean of MIC (G-)-III [2]: 4.0 µg/mL; Geometric Mean of MIC (G-)-Ia [4]: 0.029 µg/mL; Geometric Mean of MIC (G+)-Ia [6]: 1.6 µg/mL; MIC (S. pyogenes (6 strains)): 0.013 µg/mL; Geometric Mean of MIC (G-)-Ib ([7]; Mueller-Hinton agar): 0.20 µg/mL; MIC [8]: 0.2 µg/mL; MIC [9]: 0.013 µg/mL |
| CO/N=C(\C(=O)NC1C(=O)N2C(C(=O)[O-])=C(C[N+](C)(C)CCO)CSC12)c1csc(N)n1 (centres unmarked) [Example 2, 7-[(Z)-2-(2-Aminothiazol-4-yl)-2-methoxyiminoacetamido]-3-[N,N-dimethyl-N-(2-hydroxyethyl)ammonium]methyl-3-cephem-4-carboxylate] | 3.5 | 4.7 | 0.038 | 0.6 | 1.6 | 0.18 |  |
| C=CC[N+](C)(C)CC1=C(C(=O)[O-])N2C(=O)C(NC(=O)/C(=N\OC)c3csc(N)n3)C2SC1 (centres unmarked) [Example 3, 7-[(Z)-2-(2-Aminothiazol-4-yl)-2-methoxyiminoacetamido]-3-(N,N-dimethyl-N-allylammonium)methyl-3-cephem-4-carboxylate] | 5.6 | 3.6 | 0.044 | 0.69 | 1.4 | 0.22 |  |
| CO/N=C(\C(=O)NC1C(=O)N2C(C(=O)[O-])=C(C[N+](C)(C)Cc3cccnc3)CSC12)c1csc(N)n1 (centres unmarked) [Example 4, 7-[(Z)-2-(2-Aminothiazol-4-yl)-2-methoxyiminoacetamido]-3-[N,N-dimethyl-N-(3-pyridylmethyl)ammonium]methyl-3-cephem-4-carboxylate] | 7.1 | 4.7 | 0.057 | 0.69 | 2.1 | 0.22 |  |
| CCO/N=C(\C(=O)NC1C(=O)N2C(C(=O)[O-])=C(C[N+](C)(C)C)CSC12)c1csc(N)n1 (centres unmarked) [Example 8, 7-[(Z)-2-(2-Aminothiazol-4-yl)-2-ethoxyiminoacetamido]-3-(trimethylammonium)methyl-3-cephem-4-carboxylate] | 7.9 | 5.5 | 0.087 | 1.4 | 2.1 | 0.5 |  |
